{"source": "patent US10179782B2", "about": "“Substituted sulfonamide compounds” (Genentech, Inc., priority 2016, dated 2019)", "data": [{"target": "T1, human TRPA1 (Homo sapiens, UniProt O75762)", "T1 construct": "expressed in transfected cells; host or cells: CHO cells", "T1 sequence (O75762 whole entry)": "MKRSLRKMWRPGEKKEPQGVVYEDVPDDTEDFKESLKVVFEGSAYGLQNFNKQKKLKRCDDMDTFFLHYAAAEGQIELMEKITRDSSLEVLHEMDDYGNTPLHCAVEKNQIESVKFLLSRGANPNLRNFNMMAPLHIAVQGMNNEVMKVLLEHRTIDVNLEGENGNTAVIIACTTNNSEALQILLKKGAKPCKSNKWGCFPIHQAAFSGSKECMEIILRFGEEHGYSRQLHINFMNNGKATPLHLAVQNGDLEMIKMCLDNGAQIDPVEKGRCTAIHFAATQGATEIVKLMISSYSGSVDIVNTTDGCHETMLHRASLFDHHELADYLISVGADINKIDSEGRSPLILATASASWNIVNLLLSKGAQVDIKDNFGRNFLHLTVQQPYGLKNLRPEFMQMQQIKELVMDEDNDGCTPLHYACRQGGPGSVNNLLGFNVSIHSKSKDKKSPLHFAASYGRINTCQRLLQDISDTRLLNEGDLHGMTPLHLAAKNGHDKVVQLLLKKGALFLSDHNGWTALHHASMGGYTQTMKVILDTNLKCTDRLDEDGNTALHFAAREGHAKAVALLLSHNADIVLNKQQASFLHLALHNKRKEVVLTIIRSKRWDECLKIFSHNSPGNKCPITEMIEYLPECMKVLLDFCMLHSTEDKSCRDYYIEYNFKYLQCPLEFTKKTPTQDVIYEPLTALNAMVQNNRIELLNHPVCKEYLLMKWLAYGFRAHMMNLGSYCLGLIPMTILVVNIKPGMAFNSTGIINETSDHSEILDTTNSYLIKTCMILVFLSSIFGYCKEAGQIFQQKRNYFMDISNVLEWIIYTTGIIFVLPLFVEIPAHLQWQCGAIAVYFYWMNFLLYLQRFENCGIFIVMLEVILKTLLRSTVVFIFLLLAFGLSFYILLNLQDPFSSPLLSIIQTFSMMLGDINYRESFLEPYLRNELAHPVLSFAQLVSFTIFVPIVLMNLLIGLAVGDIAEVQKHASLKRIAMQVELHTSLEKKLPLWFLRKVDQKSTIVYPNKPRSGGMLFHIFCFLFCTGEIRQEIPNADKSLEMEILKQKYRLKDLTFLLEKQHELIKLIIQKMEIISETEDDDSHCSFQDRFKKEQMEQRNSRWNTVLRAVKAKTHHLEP", "experiment": "TRPA1 FLIPR Tetra calcium influx assay in CHO cells (block of cinnamaldehyde-induced calcium influx)", "type": "cell-based", "conditions": "Table 2; CHO cells expressing TRPA1; agonist cinnamaldehyde 75 uM; 20 min compound incubation; Hill coefficient fixed to 1.5; read-out: hTRPA1 CHO Ca2+ AUC EVO (IC50)", "procedure": "IC50s (effective concentration) of compounds on the human and rat TRPA1 channels were determined using a FLIPR Tetra instrument. CHO cells expressing TRPA1 were plated into 384-well plates, incubated overnight at 37 C, and loaded with BD calcium indicator dye for 1 hr at 37° C. followed by 15 minutes at room temperature. The assay buffer was Hank's Balanced Salt Solution (HBSS) containing 20 mM HEPES (pH readjusted to 7.4) along with 0.02% BSA.\nFollowing dye load and plate cool down, compounds were added to the cells using FLIPR Tetra. Plates were then incubated with compounds for 20 minutes at room temperature prior to adding agonist. Following this incubation, ˜EC80 concentration of cinnamaldehyde (75 uM for human TRPA1 and 45 uM for rat TRPA1) was added to active the channels and block of cinnamaldehyde induced calcium influx was measured.\nIC50s were fit with a standard Hill function, keeping the Hill coefficient (n) fixed to 1.5. Fixing the Hill coefficient will generally reduce variability of the IC50 determination. The IC50s were individually examined to make sure the MIN and MAX points were set correctly prior to validation of the results.", "units": {"IC50": "nM"}, "values": [{"smiles": "C[C@H]1[C@H](F)C[C@@H](C(=O)NCc2cc(-c3cnc(C(F)(F)F)nc3)ncc2C(F)(F)F)N1S(=O)(=O)c1ccc(C#N)nc1", "note": "[Example 160, (2S,4R,5S)-1-[(6-cyano-3-pyridyl)sulfonyl]-4-fluoro-5-methyl-N-[[5-(trifluoromethyl)-2-[2-(trifluoromethyl)pyrimidin-5-yl]-4-pyridyl]methyl]pyrrolidine-2-carboxamide]", "IC50": 7.27}, {"smiles": "C[C@H]1[C@H](F)C[C@@H](C(=O)NCc2cc(-c3ccc(OC(F)F)nc3)ncc2C(F)(F)F)N1S(=O)(=O)c1ccc(F)cc1", "note": "[Example 114, (2S,4R,5S)—N-([2-[6-(difluoromethoxy)pyridin-3-yl]-5-(trifluoromethyl)pyridin-4-yl]methyl)-4-fluoro-1-[(4-fluorobenzene)sulfonyl]-5-methylpyrrolidine-2-carboxamide]", "IC50": 3.57}, {"smiles": "C[C@H]1[C@H](F)C[C@@H](C(=O)NCc2cc(-c3cnc(C(F)(F)F)nc3)ncc2OC(F)F)N1S(=O)(=O)c1ccc(F)cc1", "note": "[Example 24, (2S,4R,5S)-N-((5-(difluoromethoxy)-2-(2-(trifluoromethyl)pyrimidin-5-yl)pyridin-4-yl)methyl)-4-fluoro-1-(4-fluorophenylsulfonyl)-5-methylpyrrolidine-2-carboxamide]", "IC50": 19.3}, {"smiles": "O=C(NCc1ccc(F)c(-c2cnc(C(F)(F)F)s2)c1)[C@@H]1C[C@@H](F)CN1S(=O)(=O)c1ccc(F)cc1", "note": "[Example 77, (2S,4R)-4-fluoro-1-(4-fluorophenyl)sulfonyl-N-[[4-fluoro-3-[2-(trifluoromethyl)thiazol-5-yl]phenyl]methyl]pyrrolidine-2-carboxamide]", "IC50": 73.3}, {"smiles": "C[C@H]1[C@H](F)C[C@@H](C(=O)NCc2cc(-c3cnc(C(F)(F)F)nc3)c(F)cc2C#N)N1S(=O)(=O)c1ccc(F)cc1", "note": "[Example 30, (2S,4R,5S)-N-(2-cyano-4-fluoro-5-(2-(trifluoromethyl)pyrimidin-5-yl)benzyl)-4-fluoro-1-(4-fluorophenylsulfonyl)-5-methylpyrrolidine-2-carboxamide]", "IC50": 8.65}, {"smiles": "C[C@H]1[C@H](F)C[C@@H](C(=O)NCc2ccc(F)c(-c3cnc(C(F)(F)F)nc3)c2)N1S(=O)(=O)c1ccc(F)cc1", "note": "[Example 43, (2S,4R,5S)-4-fluoro-N-(4-fluoro-3-(2-(trifluoromethyl)pyrimidin-5-yl)benzyl)-1-(4-fluorophenylsulfonyl)-5-methylpyrrolidine-2-carboxamide]", "IC50": 9.39}, {"smiles": "C[C@H]1[C@H](F)C[C@@H](C(=O)NCc2ccnc(-c3cnc(C(F)(F)F)nc3)c2)N1S(=O)(=O)c1ccc(F)cc1", "note": "[Example 38, (4R,5S)-4-fluoro-1-[(4-fluorobenzene)sulfonyl]-5-methyl-N-([2-[2-(trifluoromethyl)pyrimidin-5-yl]pyridin-4-yl]methyl)pyrrolidine-2-carboxamide]", "IC50": 69.4}, {"smiles": "C[C@H]1[C@H](F)C[C@@H](C(=O)NCc2cc(-c3cnc(C(F)(F)F)nc3)nc(C3CC3)n2)N1S(=O)(=O)c1ccc(F)cc1", "note": "[Example 37, (2S,4R,5S)-N-([2-cyclopropyl-6-[2-(trifluoromethyl)pyrimidin-5-yl]pyrimidin-4-yl]methyl)-4-fluoro-1-[(4-fluorobenzene)sulfonyl]-5-methylpyrrolidine-2-carboxamide]", "IC50": 5.4}, {"smiles": "O=C(NCc1ccc(F)c(-c2cnc(C(F)(F)F)nc2)c1)[C@H]1[C@@H]2C[C@@H]2CN1S(=O)(=O)c1ccc(F)cc1", "note": "(stereo in doubt) [Example 70, (1S,4R,5R)-3-(4-fluorophenyl)sulfonyl-N-[[4-fluoro-3-[2-(trifluoromethyl)pyrimidin-5-yl]phenyl]methyl]-3-azabicyclo[3.1.0]hexane-4-carboxamide]", "IC50": 11.3}, {"smiles": "C[C@H]1[C@H](F)C[C@@H](C(=O)NCc2cn(-c3cnc(C(F)(F)F)s3)nc2Cl)N1S(=O)(=O)c1ccc(F)cc1", "note": "[Example 148, (4R,5S)-N-[[3-chloro-1-[2-(trifluoromethyl)thiazol-5-yl]pyrazol-4-yl]methyl]-4-fluoro-1-(4-fluorophenyl)sulfonyl-5-methyl-pyrrolidine-2-carboxamide]", "IC50": 7.64}, {"smiles": "C[C@H]1[C@H](F)C[C@@H](C(=O)NCc2cc(-c3cnc(C(F)(F)F)nc3)ncc2F)N1S(=O)(=O)c1cc2cc(F)ccc2s1", "note": "[Example 99, (2S,4R,5S)-4-fluoro-1-(5-fluorobenzothiophen-2-yl)sulfonyl-N-[[5-fluoro-2-[2-(trifluoromethyl)pyrimidin-5-yl]-4-pyridyl]methyl]-5-methyl-pyrrolidine-2-carboxamide]", "IC50": 9.67}, {"smiles": "O=C(NCc1cc(-c2cnc(C(F)(F)F)nc2)nc(C2CC2)c1)[C@@H]1C[C@@H](F)CN1S(=O)(=O)c1ccc(F)cc1", "note": "[Example 67, (2S,4R)-N-[[2-cyclopropyl-6-[2-(trifluoromethyl)pyrimidin-5-yl]-4-pyridyl]methyl]-4-fluoro-1-(4-fluorophenyl)sulfonyl-pyrrolidine-2-carboxamide]", "IC50": 65.1}, {"smiles": "C[C@H]1[C@H](F)C[C@@H](C(=O)NCc2cc(-c3ccc(C(F)(F)F)nc3)ncc2F)N1S(=O)(=O)c1ccc(F)cc1", "note": "[Example 26, (2S,4R,5S)-4-fluoro-N-((5-fluoro-6′-(trifluoromethyl)-2,3′-bipyridin-4-yl)methyl)-1-(4-fluorophenylsulfonyl)-5-methylpyrrolidine-2-carboxamide]", "IC50": 41.2}, {"smiles": "C[C@@]1(F)C[C@@H](C(=O)NCc2cc(-c3cnc(C(F)(F)F)nc3)ncc2C(F)(F)F)N(S(=O)(=O)c2ccc(F)cc2)C1", "note": "[Example 155, (2S,4R)-4-fluoro-1-(4-fluorophenyl)sulfonyl-4-methyl-N-[[5-(trifluoromethyl)-2-[2-(trifluoromethyl)pyrimidin-5-yl]-4-pyridyl]methyl]pyrrolidine-2-carboxamide]", "IC50": 4.24}, {"smiles": "C[C@H]1[C@H](F)C[C@@H](C(=O)NCc2cc(-c3cnc(C(F)(F)F)nc3)ncc2F)N1S(=O)(=O)c1ccc(F)cc1", "note": "[Example 1, (2S,4R,5S)-4-fluoro-N-([5-fluoro-2-[2-(trifluoromethyl)pyrimidin-5-yl]pyridin-4-yl]methyl)-1-[(4-fluorobenzene)sulfonyl]-5-methylpyrrolidine-2-carboxamide]", "IC50": 1.91}, {"smiles": "C[C@H]1[C@H](F)C[C@@H](C(=O)NCc2cc(-c3cnc(C(F)(F)F)nc3)c(F)cn2)N1S(=O)(=O)c1ccc(F)c(F)c1", "note": "[Example 118, (2S,4R,5S)-1-(3,4-difluorophenyl)sulfonyl-4-fluoro-N-[[5-fluoro-4-[2-(trifluoromethyl)pyrimidin-5-yl]-2-pyridyl]methyl]-5-methyl-pyrrolidine-2-carboxamide]", "IC50": 2.29}, {"smiles": "COc1nn(-c2cnc(C(F)(F)F)nc2)cc1CNC(=O)[C@@H]1C[C@@H](F)[C@H](C)N1S(=O)(=O)c1ccc(F)cc1", "note": "[Example 6, (2S,4R,5S)-4-fluoro-1-(4-fluorophenyl)sulfonyl-N-[[3-methoxy-1-[2-(trifluoromethyl)pyrimidin-5-yl]pyrazol-4-yl]methyl]-5-methyl-pyrrolidine-2-carboxamide]", "IC50": 9.62}, {"smiles": "O=C(NCc1cc(-c2cnc(C(F)(F)F)nc2)ncn1)[C@@H]1CC[C@H](C2CC2)N1S(=O)(=O)c1ccc(F)cc1", "note": "[Example 21, (2S,5R)-5-cyclopropyl-1-(4-fluorophenyl)sulfonyl-N-[[6-[2-(trifluoromethyl)pyrimidin-5-yl]pyrimidin-4-yl]methyl]pyrrolidine-2-carboxamide]", "IC50": 71.3}, {"smiles": "C[C@H]1[C@H](F)C[C@@H](C(=O)NCc2cc(-c3cnc(C(F)(F)F)nc3)ncc2C(F)(F)F)N1S(=O)(=O)c1ccc(C#N)cc1", "note": "[Example 116, (2S,4R,5S)-1-(4-cyanophenyl)sulfonyl-4-fluoro-5-methyl-N-[[5-(trifluoromethyl)-2-[2-(trifluoromethyl)pyrimidin-5-yl]-4-pyridyl]methyl]pyrrolidine-2-carboxamide]", "IC50": 5.75}, {"smiles": "C[C@H]1[C@H](F)C[C@@H](C(=O)NCc2cc(-c3cnc(C(F)(F)F)nc3)ncc2C#N)N1S(=O)(=O)c1ccc(F)cc1", "note": "[Example 51, (2S,4R,5S)-N-[[5-cyano-2-[2-(trifluoromethyl)pyrimidin-5-yl]-4-pyridyl]methyl]-4-fluoro-1-(4-fluorophenyl)sulfonyl-5-methyl-pyrrolidine-2-carboxamide]", "IC50": 15.5}, {"smiles": "C[C@H]1[C@H](F)C[C@@H](C(=O)NCc2cc(OCc3ccc(F)cn3)c(F)cn2)N1S(=O)(=O)c1ccc(F)cc1", "note": "[Example 47, (2S,4R,5S)-4-fluoro-N-((5-fluoro-4-((5-fluoropyridin-2-yl)methoxy)pyridin-2-yl)methyl)-1-(4-fluorophenylsulfonyl)-5-methylpyrrolidine-2-carboxamide]", "IC50": 1900}, {"smiles": "C[C@H]1[C@H](F)C[C@@H](C(=O)NCc2cc(-c3cnc(C(F)(F)F)nc3)ncc2C(F)(F)F)N1S(=O)(=O)c1ccc(F)cc1", "note": "[Example 103, (2S,4R,5S)-4-fluoro-1-(4-fluorophenylsulfonyl)-5-methyl-N-((5-(trifluoromethyl)-2-(2-(trifluoromethyl)pyrimidin-5-yl)pyridin-4-yl)methyl)pyrrolidine-2-carboxamide]", "IC50": 0.777}, {"smiles": "CC[C@H]1CC[C@@H](C(=O)NCc2cc(-c3cnc(C(F)(F)F)nc3)ncn2)N1S(=O)(=O)c1ccc(F)cc1", "note": "[Example 20, (2S,5S)-5-ethyl-1-(4-fluorophenyl)sulfonyl-N-[[6-[2-(trifluoromethyl)pyrimidin-5-yl]pyrimidin-4-yl]methyl]pyrrolidine-2-carboxamide]", "IC50": 10.9}]}]}
